Among the data in US20250368616A1, “NITROGEN-CONTAINING HETEROCYCLIC DERIVATIVE INHIBITOR, AND PREPARATION METHOD THEREFOR AND USE THEREOF” (SHANGHAI HANSOH BIOMEDICAL CO., LTD., priority 2021, published 2025) are IC50 values, retold here.

pIC50: −log10 of the molar value.

This assay deals with Ba/F3 EGFR Del19/C797S cells. The assay is described as follows: Cell proliferation inhibition assay (Cell Titer-Glo), Ba/F3 EGFR Del19/C797S. It is filed as cell-based. The settings on record: 72 hours, read-out: Ba/F3 EGFR Del19_C797S IC50. The text has this: Test Example 2: Cell Proliferation Inhibition Assay
Experimental objective: The objective of this test example is to test the inhibitory activity of compounds on the proliferation of different EGFR C797S drug-resistant mutant cell lines Ba/F3 EGFR Del19/T790M/C797S, Ba/F3 EGFR L858R/T790M/C797S, and Ba/F3 EGFR Del19/C797S.
• Ba/F3 EGFR Del19/T790M/C797S cells were purchased from KYinno Biotechnology Co., Ltd.; • Ba/F3 EGFR Del19/C797S cells were purchased from CoBioer Biosciences Co., Ltd.; • Ba/F3 EGFR L858R/T790M/C797S cells were purchased from CoBioer Biosciences Co., Ltd.; • Cell Titer-Glo was purchased from Promega, with a catalog number of G7573; • RPMI 1640 was purchased from Gibco, with a catalog number of 22400089; • FBS was purchased from Gibco, with a catalog number of 10091148; • cell culture plates were purchased from Corning, with a catalog number of 3610.
The inhibitory activity of the compound on the proliferation of different EGFR C797S drug-resistant mutant cell lines was detected using the Cell Titer-Glo method. The different cell lines were cultured in RPMI 1640 complete culture medium containing 10% FBS under conditions of 37° C. and 5% CO2, the cells were collected by centrifugation when growing to a certain density, and adjusted to appropriate cell density after counting, the cells were spread on a white 96-well plate at 90 μL/well, and cultured in a 37° C., 5% CO2 incubator overnight, prepared compound solutions of different concentrations were added at 10 μL/well, corresponding solvent controls were set, and all wells were cultured in a 37° C., 5% CO2 incubator for 72 hours, 50 μL of CellTiter-Glo solution was added to each well, shook and mixed evenly, and incubated in the dark for 10 minutes, and a BioTek Synergy H1 microplate reader was used for reading.
The luminescence signal value was used to calculate the inhibition rate. Graphpad Prism software was used to fit the concentration and inhibition rate to a nonlinear regression curve, so as to obtain the IC50 value, as shown in Tables 3 and 4 below for details.
As to `CC(C)c1ccc(N2C[C@H](CS(C)(=O)=O)[C@H]2C)c2cnc(Nc3ccnc(-c4c[nH]nc4Cl)n3)cc12` [Example 10, N-(2-(3-chloro-1H-pyrazol-4-yl)pyrimidin-4-yl)-5-isopropyl-8-((2R,3S)-2-methyl-3-((methanesulfonyl)methyl)azetidin-1-yl)isoquinolin-3-amine], the pIC50 is 7.22. Take `CC(C)c1ccc(N2C[C@H](CS(C)(=O)=O)[C@H]2C)c2cnc(Nc3ccnc(-c4cnn(C5CC5(F)F)c4)n3)cc12` (stereo partly drawn) [Example 12, N-(2-(1-(2,2-difluorocyclopropyl)-1H-pyrazol-4-yl)pyrimidin-4-yl)-5-isopropyl-8-((2R,3S)-2-methyl-3-((methanesulfonyl)methyl)azetidin-1-yl)isoquinolin-3-amine]: the pIC50 was 7.25. The value for `CC(C)c1ccc(N2C[C@H](CS(C)(=O)=O)[C@H]2C)c2cnc(Nc3ccnc(-c4cnn(C5(C#N)CC5)c4)n3)cc12` [Example 13, 1-(4-(4-((5-isopropyl-8-((2R,3S)-2-methyl-3-((methanesulfonyl)methyl)azetidin-1-yl)isoquinolin-3-yl)amino)pyrimidin-2-yl)-1H-pyrazol-1-yl)cyclopropane-1-carbonitrile] was 7.09; that for `CC(C)c1ccc(N2C[C@H](CS(C)(=O)=O)[C@H]2C)c2cnc(Nc3ccnc(-c4cnn([C@@H](C)C(F)(F)F)c4)n3)cc12` [Example 22A, 5-isopropyl-8-((2R,3S)-2-methyl-3-((methanesulfonyl)methyl)azetidin-1-yl)-N-(2-(1-((S)-1,1,1-trifluoropropan-2-yl)-1H-pyrazol-4-yl)pyrimidin-4-yl)isoquinolin-3-amine] was 7.02; that for `CC(C)c1ccc(N2C[C@H](CS(C)(=O)=O)[C@H]2C)c2cnc(Nc3ccnc(-c4cnn(C5(CF)CC5)c4)n3)cc12` [Example 29, N-(2-(1-(1-(fluoromethyl)cyclopropyl)-1H-pyrazol-4-yl)pyrimidin-4-yl)-5-isopropyl-8-((2R,3S)-2-methyl-3-((methanesulfonyl)methyl)azetidin-1-yl)isoquinolin-3-amine] was 7.19. The value for `CC(C)c1c(F)cc(N2C[C@H](CS(C)(=O)=O)[C@H]2C)c2cnc(Nc3ccnc(-c4cnn(C)c4)n3)cc12` [Example 39, 6-fluoro-5-isopropyl-N-(2-(1-methyl-1H-pyrazol-4-yl)pyrimidin-4-yl)-8-((2R,3S)-2-methyl-3-((methanesulfonyl)methyl)azetidin-1-yl)isoquinolin-3-amine] was 7.14; that for `CC(C)c1ccc(N2CC(CC#N)C2)c2cnc(Nc3ccnc(-c4cnn(S(=O)(=O)C5CC5)c4)n3)cc12` [Example 40, 2-(1-(3-((2-(1-(cyclopropylsulfonyl)-1H-pyrazol-4-yl)pyrimidin-4-yl)amino)-5-isopropylisoquinolin-8-yl)azetidin-3-yl)acetonitrile] was 7.15; that for `COC1(n2cc(-c3nccc(Nc4cc5c(C(C)C)ccc(N6C[C@H](CS(C)(=O)=O)[C@H]6C)c5cn4)n3)cn2)CC1` [Example 49, 5-isopropyl-N-(2-(1-(1-methoxycyclopropyl)-1H-pyrazol-4-yl)pyrimidin-4-yl)-8-((2R,3S)-2-methyl-3-((methanesulfonyl)methyl)azetidin-1-yl)isoquinolin-3-amine] was 7.39. As to `CC(C)c1ccc(N2C[C@H](CS(C)(=O)=O)[C@H]2C)c2cnc(Nc3ccnc(-c4cnn(C5(CC#N)CC5)c4)n3)cc12` [Example 50, 2-(1-(4-(4-((5-isopropyl-8-((2R,3S)-2-methyl-3-((methanesulfonyl)methyl)azetidin-1-yl)isoquinolin-3-yl)amino)pyrimidin-2-yl)-1H-pyrazol-1-yl)cyclopropyl)acetonitrile], the pIC50 was 7.29. In the case of `C=CCn1cc(-c2nccc(Nc3cc4c(C(C)C)ccc(N5C[C@H](CS(C)(=O)=O)[C@H]5C)c4cn3)n2)cn1` [Example 51, N-(2-(1-allyl-1H-pyrazol-4-yl)pyrimidin-4-yl)-5-isopropyl-8-((2R,3S)-2-methyl-3-((methanesulfonyl)methyl)azetidin-1-yl)isoquinolin-3-amine], the pIC50 was 7.39.

For `CC#CCn1cc(-c2nccc(Nc3cc4c(C(C)C)ccc(N5C[C@H](CS(C)(=O)=O)[C@H]5C)c4cn3)n2)cn1` [Example 52, N-(2-(1-(but-2-yn-1-yl)-1H-pyrazol-4-yl)pyrimidin-4-yl)-5-isopropyl-8-((2R,3S)-2-methyl-3-((methanesulfonyl)methyl)azetidin-1-yl)isoquinolin-3-amine], the pIC50 is 7.31. For `C#CCn1cc(-c2nccc(Nc3cc4c(C(C)C)ccc(N5C[C@H](CS(C)(=O)=O)[C@H]5C)c4cn3)n2)cn1` [Example 53, 5-isopropyl-8-((2R,3S)-2-methyl-3-((methanesulfonyl)methyl)azetidin-1-yl)-N-(2-(1-(prop-2-yn-1-yl)-1H-pyrazol-4-yl)pyrimidin-4-yl)isoquinolin-3-amine], the pIC50 was 7.31. Consider `CC(C)c1ccc(N2C[C@H](CS(C)(=O)=O)[C@H]2C)c2cnc(Nc3ccnc(-c4cn(C)nc4C#N)n3)cc12` [Example 55, 4-(4-((5-isopropyl-8-((2R,3S)-2-methyl-3-((methanesulfonyl)methyl)azetidin-1-yl)isoquinolin-3-yl)amino)pyrimidin-2-yl)-1-methyl-1H-pyrazole-3-carbonitrile], for which the pIC50 is 7.60.

Take `CC(C)c1ccc(N2C[C@H](CS(C)(=O)=O)[C@H]2C)c2cnc(Nc3ccnc(-c4cn(C)nc4C(F)(F)F)n3)cc12` [Example 56, 5-isopropyl-8-((2R,3S)-2-methyl-3-((methanesulfonyl)methyl)azetidin-1-yl)-N-(2-(1-methyl-3-(trifluoromethyl)-1H-pyrazol-4-yl)pyrimidin-4-yl)isoquinolin-3-amine]: the pIC50 is 8.00. `CCc1nn(C)cc1-c1nccc(Nc2cc3c(C(C)C)ccc(N4C[C@H](CS(C)(=O)=O)[C@H]4C)c3cn2)n1` [Example 57, N-(2-(3-ethyl-1-methyl-1H-pyrazol-4-yl)pyrimidin-4-yl)-5-isopropyl-8-((2R,3S)-2-methyl-3-((methanesulfonyl)methyl)azetidin-1-yl)isoquinolin-3-amine]: the pIC50 was 7.59. Regarding `Cc1nn(CCO)cc1-c1nccc(Nc2cc3c(C(C)C)ccc(N4C[C@H](CS(C)(=O)=O)[C@H]4C)c3cn2)n1` [Example 58, 2-(4-(4-((5-isopropyl-8-((2R,3S)-2-methyl-3-((methanesulfonyl)methyl)azetidin-1-yl)isoquinolin-3-yl)amino)pyrimidin-2-yl)-3-methyl-1H-pyrazol-1-yl)ethan-1-ol], the pIC50 was 7.28. As for `CC(C)c1ccc(N2C[C@H](CS(C)(=O)=O)[C@H]2C)c2cnc(Nc3ccnc(-c4cn(CCO)nc4C(F)(F)F)n3)cc12` [Example 59, 2-(4-(4-((5-isopropyl-8-((2R,3S)-2-methyl-3-((methanesulfonyl)methyl)azetidin-1-yl)isoquinolin-3-yl)amino)pyrimidin-2-yl)-3-(trifluoromethyl)-1H-pyrazol-1-yl)ethan-1-ol], the pIC50 was 7.21. For `Cc1nn(C)cc1-c1nccc(Nc2cc3c(C(C)C)ccc(N4CC(NS(C)(=O)=O)C4)c3cn2)n1` [Example 60, N-(1-(3-((2-(1,3-dimethyl-1H-pyrazol-4-yl)pyrimidin-4-yl)amino)-5-isopropylisoquinolin-8-yl)azetidin-3-yl)methanesulfonamide], the pIC50 is 7.59. For `CC(C)c1ccc(N2C[C@H](CS(C)(=O)=O)[C@H]2C)c2cnc(Nc3ccnc(-c4cn(C)nc4F)n3)cc12` [Example 62, N-(2-(3-fluoro-1-methyl-1H-pyrazolyl-4-yl)pyrimidin-4-yl)-5-isopropyl-8-((2R,3S)-2-methyl-3-((methanesulfonyl)methyl)azabut-1-yl)isoquinolin-3-amine], the pIC50 was 7.40. Regarding `CC(C)c1ccc(C2CC(CS(C)(=O)=O)C2)c2cnc(Nc3ccnc(-c4cn(C)nc4Cl)n3)cc12` (stereo not drawn) [Example 63, N-(2-(3-chloro-1-methyl-1H-pyrazol-4-yl)pyrimidin-4-yl)-5-isopropyl-8-(3-((methanesulfonyl)methyl)cyclobutyl)isoquinolin-3-amine], the pIC50 was 7.52. Regarding `[2H]C([2H])([2H])n1cc(-c2nccc(Nc3cc4c(C(C)C)ccc(N5C[C@H](CS(C)(=O)=O)[C@H]5C)c4cn3)n2)c([N+](=O)[O-])n1` [Example 64, 5-isopropyl-8-((2R,3S)-2-methyl-3-((methanesulfonyl)methyl)azetidin-1-yl)-N-(2-(1-(methyl-d3)-3-nitro-1H-pyrazol-4-yl)pyrimidin-4-yl)isoquinolin-3-amine], the pIC50 was 7.21.
